Source: patent US20230346831A1, “METHODS FOR TREATING […] USING LOW DOSE CARBON MONOXIDE” (priority 2020, published 2023)
Where “and” joins values, the source holds several entries; their conditions need not be identical. Identical values can stand only once.

Tested on: MDA-MB-231/TGL cells
Assay: metabolomic assay (polar metabolite profiling, mass spectrometry)
Assay type: cell-based, human
Protocol: Cells were seeded in a 10 cm cell culture plate with DMEM containing 10% FBS, 0.2 mM L-glutamine and 1% penicillin/streptomycin. After 16 hours of incubation, metabolites were extracted from the cells using 80% methanol. The remaining steps were carried out with no change according to the methods of Goncalves et al, PNAS, 115:4, E743-E752 (2018). All data analyses were done using MetaboAnalyst.
7 × 10^6 cells were seeded in 10-cm cell culture plates with DMEM containing 10% FBS, 0.2 mM L-glutamine and 1% penicillin/streptomycin. Additionally, MCF7/TGL/pQ was cultured in media containing 0.5 µgml^-1 puromycin and 25 mM HEPES. After 16 hours of incubation, metabolites were extracted from the cells using 80% methanol. The remaining steps were carried out by Weill Cornell Medicine Proteomics and Metabolomics Core Facility according to M. D. Goncalves et al., Proc Natl Acad Sci USA 115, E743-E752 (2018). All data analyses were done using MetaboAnalyst 4.0 (www.metaboanalyst.ca/).
To investigate whether 250 ppm CO mimics hypoxia, the HiF1α protein levels were examined in CO treated MCF7/TGL and MDA-MB-231/TGL cells. […] To determine whether 250 ppm CO affects metabolism, polar metabolites were profiled using two breast cancer cell lines, MCF7/TGL and MDA-MB-231/TGL (FIGS. 7-9).

[1] = MDA-MB-231/TGL cells treated with CO (250 ppm), replicates CO 1-3

## [C-]#[O+] [CO, Carbon monoxide]
MCF7/TGL and MDA-MB-231/TGL cells, 250 ppm CO, 16 hours
  cis-aconitic acid: significantly downregulated
[1]
  Peak Height of metabolite intensity: 2-Hydroxycaproic acid (HMDB01624): 244,811 and 833,959 and 281,142
  Peak Height of metabolite intensity: 2-Hydroxyvaleric acid (HMDB01863): 621,532 and 904,968 and 786,820
  Peak Height of metabolite intensity: 2-Ketobutyric acid (HMDB00005): 5,289,178 and 6,027,442 and 5,724,353
  Peak Height of metabolite intensity: 2-Ketohexanoic acid (HMDB01864): 21,644,820 and 23,261,950
  Peak Height of metabolite intensity: 3-Hydroxyhippuric acid (HMDB06116): 67,709 and 54,023 and 55,195
  Peak Height of metabolite intensity: 3-Hydroxymethylglutaric acid (HMDB00355): 20,353,060 and 19,480,200 and 19,066,660
  Peak Height of metabolite intensity: 3-Phosphoglyceric acid (HMDB00807): 2,076,132 and 820,562 and 843,315
  Peak Height of metabolite intensity: 3-hydroxyhexadecanoic acid (HMDB61658): 119,550 and 182,677 and 362,311
  Peak Height of metabolite intensity: 4-Acetamidobutanoic acid (HMDB03681): 438,862 and 501,312 and 487,324
  Peak Height of metabolite intensity: 4-Hydroxybenzaldehyde (HMDB11718): 1,623,875 and 1,610,244 and 2,163,467
  Peak Height of metabolite intensity: 5-Adenosylhomocysteine (HMDB00939): 502,295 and 543,231 and 555,202
  Peak Height of metabolite intensity: 5-Thymidylic acid (HMDB01227): 1,061,384 and 1,368,086 and 1,260,084
  Peak Height of metabolite intensity: 5′-Methylthioadenosine (HMDB01173): 1,678,515 and 1,980,683 and 3,013,280
  Peak Height of metabolite intensity: 6-Phosphogluconic acid (HMDB01316): 394,956 and 515,553 and 654,253
  Peak Height of metabolite intensity: 7-Methylguanosine (HMDB01107): 25,667 and 34,657 and 32,703
  Peak Height of metabolite intensity: (R)-3-Hydroxydecanoic acid (HMDB10725): 88,715 and 193,751 and 99,729
  Peak Height of metabolite intensity: ADP (HMDB01341): 4,962,730 and 5,529,189 and 5,002,783
  Peak Height of metabolite intensity: ADP-glucose (HMDB06557): 84,781 and 90,192 and 99,689
  Peak Height of metabolite intensity: AICAR (HMDB01517): 32,080 and 59,426
  Peak Height of metabolite intensity: Acetylcholine (HMDB00895): 34,254,070 and 37,448,230 and 42,218,910
  Peak Height of metabolite intensity: Acetylcysteine (HMDB01890): 3,133,666 and 3,527,413 and 3,894,968
  Peak Height of metabolite intensity: Adenine (HMDB00034): 1,219,554 and 812,836 and 907,390
  Peak Height of metabolite intensity: Adenosine (HMDB00050): 18,973,870 and 624,270 and 424,559
  Peak Height of metabolite intensity: Adenosine monophosphate (HMDB00045): 6,997,849 and 8,959,282 and 6,609,897
  Peak Height of metabolite intensity: Adenosine triphosphate (HMDB00538): 7,254,237 and 6,217,538 and 7,426,501
  Peak Height of metabolite intensity: Allantoic acid (HMDB01209): 66,783 and 51,760 and 61,927
  Peak Height of metabolite intensity: Allantoin (HMDB00462): 1,362,548 and 1,445,842 and 1,605,951
  Peak Height of metabolite intensity: Alpha-Lactose (HMDB00186): 636,775 and 666,969 and 547,770
  Peak Height of metabolite intensity: Aminoadipic acid (HMDB00510): 5,352,894 and 5,983,553 and 6,501,110
  Peak Height of metabolite intensity: Arachidonic acid (HMDB01043): 219,569 and 129,238 and 117,457
  Peak Height of metabolite intensity: Argininosuccinic acid (HMDB00052): 397,796 and 561,328 and 632,101
  Peak Height of metabolite intensity: Asymmetric dimethylarginine (HMDB01539): 5,492,503 and 6,220,486 and 6,753,139
  Peak Height of metabolite intensity: Betaine (HMDB00043): 126,207,200 and 122,297,900 and 134,080,700
  Peak Height of metabolite intensity: Biotin (HMDB00030): 28,122 and 15,310
  Peak Height of metabolite intensity: CDP (HMDB01546): 536,936 and 604,322 and 492,208
  Peak Height of metabolite intensity: CDP-Ethanolamine (HMDB01564): 100,228 and 130,601 and 162,582
  Peak Height of metabolite intensity: Caprylic acid (HMDB00482): 470,899 and 477,590 and 472,338
  Peak Height of metabolite intensity: Carnosine (HMDB00033): 2,256,265 and 2,245,049 and 2,446,163
  Peak Height of metabolite intensity: Choline (HMDB00097): 108,427,800 and 109,880,900 and 111,858,100
  Peak Height of metabolite intensity: Citicoline (HMDB01413): 361,538 and 444,892 and 574,461
  Peak Height of metabolite intensity: Citric acid (HMDB00094): 74,805,210 and 82,630,710 and 89,689,600
  Peak Height of metabolite intensity: Citrulline (HMDB00904): 15,240,380 and 14,266,830 and 19,605,850
  Peak Height of metabolite intensity: Coenzyme A (HMDB01423): 109,174 and 125,366 and 106,848
  Peak Height of metabolite intensity: Creatine (HMDB00064): 123,445,200 and 119,145,800 and 129,072,700
  Peak Height of metabolite intensity: Creatinine (HMDB00562): 23,236,710 and 23,501,360 and 25,483,820
  Peak Height of metabolite intensity: Cytidine (HMDB00089): 225,855 and 258,465 and 227,521
  Peak Height of metabolite intensity: Cytidine monophosphate (HMDB00095): 724,977 and 871,719 and 625,602
  Peak Height of metabolite intensity: Cytidine triphosphate (HMDB00082): 183,937 and 215,682 and 295,169
  Peak Height of metabolite intensity: D-2,3-Dihydroxypropanoic acid (HMDB31818): 2,140,143 and 2,437,835 and 2,431,980
  Peak Height of metabolite intensity: D-2-Hydroxyglutaric acid (HMDB00606): 3,167,321 and 3,985,443 and 4,584,429
  Peak Height of metabolite intensity: D-Arabitol (HMDB00568): 3,445,547 and 3,545,938 and 4,135,015
  Peak Height of metabolite intensity: D-Fructose (HMDB00660): 6,135,849 and 6,547,945 and 7,210,193
  Peak Height of metabolite intensity: D-Glucose (HMDB00122): 36,851,430 and 39,288,740 and 42,369,140
  Peak Height of metabolite intensity: D-Glyceraldehyde 3-phosphate (HMDB01112): 6,590,523 and 2,998,173 and 3,562,678
  Peak Height of metabolite intensity: D-Ribose 5-phosphate (HMDB01548): 624,479 and 581,839 and 786,584
  Peak Height of metabolite intensity: D-Ribose (HMDB00283): 2,183,962 and 2,605,392 and 2,639,392
  Peak Height of metabolite intensity: D-Sedoheptulose 7-phosphate (HMDB01068): 561,321 and 572,202 and 625,243
  Peak Height of metabolite intensity: DL-O-Phosphoserine (HMDB01721): 185,294 and 163,584 and 141,059
  Peak Height of metabolite intensity: Deoxyinosine (HMDB00071): 8,871 and 6,834 and 15,777
  Peak Height of metabolite intensity: Deoxyribose 5-phosphate (HMDB01031): 50,751 and 42,917 and 52,112
  Peak Height of metabolite intensity: Deoxyuridine (HMDB00012): 40,015 and 22,277 and 25,003
  Peak Height of metabolite intensity: Dimethylglycine (HMDB00092): 10,914,430 and 13,334,130 and 17,506,690
  Peak Height of metabolite intensity: Erythritol (HMDB02994): 598,716 and 590,438 and 628,349
  Peak Height of metabolite intensity: Fructose 1,6-bisphosphate (HMDB01058): 10,176,490 and 12,986,490 and 13,433,710
  Peak Height of metabolite intensity: Fructose 6-phosphate (HMDB00124): 2,660,942 and 2,572,195 and 2,965,940
  Peak Height of metabolite intensity: Fumaric acid (HMDB00134): 8,464,455 and 9,727,776 and 11,821,440
  Peak Height of metabolite intensity: GDP-glucose (HMDB03351): 92,740 and 103,248 and 99,915
  Peak Height of metabolite intensity: Gluconic acid (HMDB00625): 37,957,970 and 52,856,170 and 64,673,460
  Peak Height of metabolite intensity: Glucosamine 6-phosphate (HMDB01254): 529,990 and 692,898 and 945,530
  Peak Height of metabolite intensity: Glucose 6-phosphate (HMDB01401): 2,103,241 and 2,833,469 and 3,624,968
  Peak Height of metabolite intensity: Glutathione (HMDB00125): 99,156,710 and 109,797,600 and 130,505,000
  Peak Height of metabolite intensity: Glycerol3-phosphate (HMDB00126): 758,556 and 825,062 and 1,025,018
  Peak Height of metabolite intensity: Glycerophosphocholine (HMDB00086): 347,562,900 and 361,214,700 and 419,624,900
  Peak Height of metabolite intensity: Glycine (HMDB00123): 45,296,030 and 53,615,700 and 58,796,920
  Peak Height of metabolite intensity: Guanosine (HMDB00133): 619,336 and 155,195 and 131,494
  Peak Height of metabolite intensity: Guanosine diphosphate (HMDB01201): 493,573 and 471,968 and 538,827
  Peak Height of metabolite intensity: Guanosine monophosphate (HMDB01397): 465,594 and 655,797 and 560,973
  Peak Height of metabolite intensity: Hippuric acid (HMDB00714): 47,961 and 38,230 and 36,149
  Peak Height of metabolite intensity: Hypotaurine (HMDB00965): 6,754,939 and 7,052,286 and 8,446,435
  Peak Height of metabolite intensity: Hypoxanthine (HMDB00157): 211,957 and 135,595 and 141,122
  Peak Height of metabolite intensity: Imidazolelactic acid (HMDB02320): 128,804 and 165,439 and 221,241
  Peak Height of metabolite intensity: Indolelactic acid (HMDB00671): 84,732 and 90,304 and 155,173
  Peak Height of metabolite intensity: Inosine (HMDB00195): 2,168,084 and 318,912 and 236,433
  Peak Height of metabolite intensity: Inosinic acid (HMDB00175): 178,233 and 246,521 and 243,587
  Peak Height of metabolite intensity: Kynurenic acid (HMDB00715): 51,692 and 41,122 and 61,792
  Peak Height of metabolite intensity: L-Acetylcarnitine (HMDB00201): 106,933,600 and 121,142,500 and 148,690,900
  Peak Height of metabolite intensity: L-Arginine (HMDB00517): 31,387,180 and 29,265,460 and 31,837,150
  Peak Height of metabolite intensity: L-Asparagine (HMDB00168): 21,992,250 and 21,453,690 and 27,389,900
